The values that follow come from ChEMBL document CHEMBL1949499, “Nicotinic acids: liver-targeted SCD inhibitors with preclinical anti-diabetic efficacy” (Bioorg Med Chem Lett, 2011).

Each structure is given as a SMILES string. Calls of active or inactive are those of the source. The rule behind the calls is not given here.

The target of data set [1] is T1, Acyl-CoA desaturase 1 (Rattus norvegicus, UniProt P07308).
T1 sequence (P07308 whole entry): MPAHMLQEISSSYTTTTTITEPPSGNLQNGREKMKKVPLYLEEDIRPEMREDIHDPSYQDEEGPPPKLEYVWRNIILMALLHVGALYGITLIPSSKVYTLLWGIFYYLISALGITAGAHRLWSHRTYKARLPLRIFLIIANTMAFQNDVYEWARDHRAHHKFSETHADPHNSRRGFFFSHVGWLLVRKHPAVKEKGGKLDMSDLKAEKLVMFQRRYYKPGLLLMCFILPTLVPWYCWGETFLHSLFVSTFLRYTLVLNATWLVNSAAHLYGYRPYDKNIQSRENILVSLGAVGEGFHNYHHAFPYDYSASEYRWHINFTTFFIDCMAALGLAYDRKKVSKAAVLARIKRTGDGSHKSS
Kind of data set: Inhibition of rat SCD1.

The target in data set [2] is T2, Stearoyl-CoA desaturase (Homo sapiens, UniProt O00767).
T2 sequence (O00767 whole entry): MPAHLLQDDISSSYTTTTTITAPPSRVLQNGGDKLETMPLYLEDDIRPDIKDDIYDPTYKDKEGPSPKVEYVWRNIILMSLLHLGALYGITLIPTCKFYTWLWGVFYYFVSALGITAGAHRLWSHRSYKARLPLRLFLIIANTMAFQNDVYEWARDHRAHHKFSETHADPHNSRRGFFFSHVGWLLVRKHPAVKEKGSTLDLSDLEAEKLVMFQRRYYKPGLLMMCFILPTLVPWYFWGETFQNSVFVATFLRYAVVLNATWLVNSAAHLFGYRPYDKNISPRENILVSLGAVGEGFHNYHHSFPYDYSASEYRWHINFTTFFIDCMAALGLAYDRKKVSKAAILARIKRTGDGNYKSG
Kind of data set: Inhibition of human SCD1 expressed in human HepG2 cells assessed as conversion of [14C]stearic acid to [14C]oleic acid. The class given is cell-based.

The target of data set [3] is T1, Acyl-CoA desaturase 1. Kind of data set: Inhibition of SCD1 in Sprague-Dawley rat hepatocytes assessed as conversion of [14C]oleic acid formation by HPLC analysis. The class given is cell-based, Hepatocyte.
Data set [4] can be described thus: Ratio of drug uptake in left median liver lobe to harderian gland in C57/BL6 mouse at 10 mg/kg, po after 6 hrs. Further details: dose 10 mg/kg, route oral. The class given is ADME, organism-based. As to conditions: in vivo.
For data set [5], the system named is HepG2. Nature of the data set: Selectivity ratio of IC50 for human SCD1 expressed in human HepG2 cells to IC50 for rat SCD1 in Sprague-Dawley rat hepatocytes. The class given is cell-based.
Data set [6] relates to Mus musculus. Nature of the data set: Inhibition of SCD activity in high sucrose/fat free diet fed C57/BL6 mouse liver assessed as reduction in conversion of [14C]stearic acid to [14C]oleic acid at 100 mg/kg, po. The class given is functional.
Data set [7] can be described thus: Plasma concentration in high sucrose/fat free diet fed C57/BL6 mouse at 100 mg/kg, po after 3 hrs. The arrangement: dose 100 mg/kg, route oral. The class given is ADME, organism-based.
A short description of data set [8]: Drug uptake in high sucrose/fat free diet fed C57/BL6 mouse liver at 100 mg/kg, po after 3 hrs. The arrangement: dose 100 mg/kg, route oral. As to conditions: read-out: Drug uptake. The class given is ADME, organism-based.
The subject of data set [9] is Mus musculus. Kind of data set: Acute antidiabetic activity in high fat diet fed C57/BL6 mouse eDIO model assessed as increase in glucose clearance at 100 mg/kg, po administered 1 hr prior to glucose challenge by oGTT assay. The class given is functional.
The nature of data set [10]: Drug uptake in high fat diet fed C57/BL6 mouse eDIO model whole blood at 100 mg/kg, po after 3 hrs. The class given is ADME, organism-based. Further details: dose 100 mg/kg, route oral. As to conditions: read-out: Drug uptake.
Data set [11] has as its system Nucleic Acid. Nature of the data set: Ratio of drug uptake in high fat diet fed C57/BL6 mouse eDIO model whole blood to high sucrose/fat free diet fed C57/BL6 mouse plasma. As to conditions: in vivo. The class given is ADME.

`O=C(O)c1ccc(-c2ccc(N3CCC(Oc4ccccc4C(F)(F)F)CC3)nn2)cc1`: the IC50 – broadly, the concentration that inhibits the measured activity by half – was 0.105 µM in data set [1] and 0.55 µM in data set [2].

Consider `O=C(O)c1cncc(-c2ccc(N3CCC(Oc4ccccc4Cl)CC3)nn2)c1`, for which the IC50 in data set [1] was 0.166 µM; in data set [2], over 10 µM; in data set [3], 1.89 µM.

Regarding `O=C(O)c1cncc(-c2cnc(N3CCC(Oc4cc(F)ccc4Br)CC3)nc2)c1`, the IC50 was determined as 0.077 µM in data set [1], 9.42 µM in [2] and 3.05 µM in [3]. Also, in [4], the Ratio is on record as 8.

As for `O=C(O)c1cncc(-c2ccc(N3CCC(Oc4ccccc4Br)CC3)nn2)c1`, the IC50 in data set [1] stood at 0.047 µM; in [2] it was 18.3 µM; in [3], 1.64 µM. For the same compound, the Ratio IC50 in data set [5] amounted to 11.

As to `FC(F)(F)c1ccccc1OC1CCN(c2ccc(-c3cncc(-c4nnn[nH]4)c3)nn2)CC1`, 11 µM corresponded to half-maximal inhibition in [1] (IC50).

As for `O=C(O)c1cncc(-c2cnc(N3CCC(Oc4cc(F)ccc4Br)CC3)cn2)c1`, the IC50 in [1] is 0.069 µM; in data set [2] it was 6.72 µM; in [3], 1.36 µM. For the same compound, the Ratio in data set [4] worked out at 12.

Take `O=C(O)c1cccc(-c2ccc(N3CCC(Oc4ccccc4C(F)(F)F)CC3)nn2)c1`: the IC50 in data set [1] came out at 0.107 µM; in data set [2] it was 1.11 µM.

As for `O=C(O)c1cncc(-c2ccc(N3CCC(Oc4ccccc4I)CC3)nn2)c1`, the IC50 in data set [1] turned out to be 0.027 µM; in [2] it was 5.08 µM; in data set [3], 1 µM. The Ratio IC50 in data set [5] is 5.

On to `O=C(O)c1cncc(-c2ccc(N3CCC(Oc4cc(F)ccc4Br)CC3)cn2)c1`, for which, in [1], 1.22 µM corresponded to half-maximal inhibition (IC50).

As to `O=C(O)c1cncc(-c2ccc(N3CCC(Oc4cc(F)ccc4Br)CC3)nc2)c1`, the IC50 in [1] came to 0.024 µM; in [2], 2.41 µM; in data set [3] it was 1.93 µM. For the same compound, in data set [4], the Ratio was 3.

As to `O=C(O)c1ccc(-c2ccc(N3CCC(Oc4cc(F)ccc4Br)CC3)nn2)nc1`, the IC50 in data set [1] came to 0.008 µM; in [2], 0.128 µM; in data set [3], 0.159 µM.

In the case of `O=C(O)c1cncc(-c2cnc(N3CCC(Oc4cc(F)ccc4Br)CC3)nn2)c1`, the figures for the concentration for half-maximal inhibition (IC50) in data set [1], in [2] and in data set [3] were 0.02 µM, 4.47 µM and 0.268 µM, respectively. In [4], the Ratio is 1.5.

With `O=C(O)c1cncc(-c2ccc(N3CCC(Oc4ccccc4C(F)(F)F)CC3)nn2)c1`, the IC50 was 0.129 µM in [1], over 20 µM in data set [2] and 1.3 µM in [3].

The compound `O=C(O)Cc1ccc(N2CCC(Oc3ccccc3C(F)(F)F)CC2)nn1` yielded an IC50 in data set [1] of 2.68 µM.

Compound `O=C(O)c1cncc(-c2ccc(N3CCC(Oc4ccccc4C(F)(F)F)CC3)cc2)c1` gave an IC50 in data set [1] of 8.44 µM.

In data set [1], `O=C(O)c1cncc(-c2ccc(N3CCC(Oc4c(F)cc(F)cc4Br)CC3)nn2)c1` returned an IC50 of over 20 µM. Also, the inhibition result in data set [6] is “inactive”. Besides, the concentration at 3 h is 750 nM in [7], 30200 nM in data set [8] and 730 nM in [10]. In addition, the result in data set [9] was inactive. For the same compound, the Ratio in data set [11] is on record as under 2.

For the compound `O=C(O)c1cncc(-c2ccc(N3CCC(Oc4cc(F)c(F)cc4Br)CC3)nn2)c1`, the IC50 in [1] is 0.015 µM; in data set [2], 8.26 µM; in data set [3] it was 0.563 µM.

In data set [1], `O=C(O)c1ccc(N2CCC(Oc3ccccc3C(F)(F)F)CC2)nn1` displayed an IC50 of over 10 µM.

As to `O=C(O)Cc1cncc(-c2ccc(N3CCC(Oc4cc(F)ccc4Br)CC3)nn2)c1`, the IC50 in data set [1] amounted to 0.02 µM; in data set [2] it was 0.78 µM; in data set [3], 0.075 µM. Further, the Ratio IC50 in [5] amounted to 10. The Ratio in [4] is given as 4.

Consider `O=C(O)c1cncc(-c2ccc(N3CCC(Oc4cc(F)ccc4Br)CC3)nn2)n1`, for which half-maximal inhibition in [1] (IC50) required 0.772 µM.
